Assay results as given in US10006912B2, “Peptides for diagnosing lyme disease” (B[…]., priority 2013, dated 2018).

Experiments:
[1] = tested on: IgM in sera containing antibodies against B. burgdorferi proteins; experiment: Epitope mapping of DbpB overlapping peptide library, IgM binding; design: species or system human; settings: 8 high titer Lyme disease patient sera; 20-AA library peptides of DbpB, B. burgdorferi B31
Method: (§1) Epitope mapping of full-length DbpB was performed by ArrayIt, Corp. (Sunnyvale, Calif.). Briefly, an overlapping peptide library consisting of 20-AA long peptides overlapping by 15-AA (offset by 5-AA) was generated using the sequence for DbpB from B. burgdorferi B31 (Accession #AAC66244). The sequence submitted for mapping lacked the first 8 AA. The library was exposed to 8 sera containing antibodies against B. burgdorferi proteins, as determined by commercial Lyme immunostrips (Viramed Biotech AG, Planegg, Germany). IgM and IgG binding were independently evaluated, and data were reported in terms of fluorescent binding intensity. Peptides generated from epitope mapping data were produced by Lifetein, Inc (South Plainfield, N.J.). […]
(§2) Linear epitope mapping of DbpB was accomplished by probing overlapping peptide libraries containing full length sequences derived from the B31 strain of B. burgdorferi sensu stricto, with serum obtained from 8 Lyme disease patients with high levels of anti-Borrelia antibody as determined using commercially available Lyme disease immunoblot strips. […]

[2] = tested on: IgG in sera containing antibodies against B. burgdorferi proteins; experiment: Epitope mapping of DbpB overlapping peptide library, IgG binding; design: species or system human; settings: 8 high titer Lyme disease patient sera; 20-AA library peptides of DbpB, B. burgdorferi B31
Method: as §1, §2

Row | Substance | samples in which the peptide was bound by IgM [1] [%] | samples in which the peptide was bound by IgG [2] [%]
1 | DbpB(38-57): 20-AA library peptide of DbpB from B. burgdorferi B31; one of two overlapping peptides forming DbpB(38-67) (KDLKNKILKIKKEATGKGVL) | 100 | –
2 | DbpB(48-67): 20-AA library peptide of DbpB from B. burgdorferi B31; one of two overlapping peptides forming DbpB(38-67) (KKEATGKGVLFEAFTGLKTG) | – | 100
